From patent publication US9872492B2, “(S)-abscisic acid derivatives for thinning” (Valent BioSciences Corporation, priority 2015, dated 2018)

Experiments:
Assay type in all cases: in vivo
[1] = tested on: Rich Lady peach; experiment: Thinning study on Rich Lady peach (Yakima, Washington), Example 5; settings: for Effect on fruit size (percent fruit 125 count/box or larger), in words / Effect on hand thinning required / fruit drop, in words: 30-300 ppm 3′-methyl-(S)-abscisic acid, 300-1000 ppm S-ABA; for Harvest percent fruit 125 ct/box or larger / Number hand thinned per tree: 0.05% Regulaid surfactant; for Number hand thinned per tree: hand thinned after fruit drop period
Description: A study was conducted in Washington (Yakima, Wash.) to determine the effect of S-ABA and 3′-methyl-(S)-abscisic acid on Rich Lady peach thinning. In this study, the initial fruit set prior to treatment was relatively uniform across the treatment groups with the exception of the 300 ppm 3′-methyl-(S)-abscisic acid treatment that had lower fruit set. Following the treatments and a period of time for fruit to drop, the trees were hand-thinned to achieve a desired commercially optimal fruit load.

[2] = tested on: Gala apple; experiment: Thinning study of Gala apple (Michigan), repeat, Example 3
Excerpt: In a study carried out in Michigan, 3'-methyl-(S)-abscisic acid was mixed with 6-benzyladenine and compared with a mixture of S-ABA and 6-benzyladenine. 3'-Methyl-(S)-abscisic acid was formulated as a potassium salt in an aqueous. S-ABA was formulated as potassium salt in an aqueous formulation. […]®, a 2% (w/w) 6-benzyladenine formulation, was used as the source of 6-benzyladenine (“6-BA” in the following tables). The treatments were applied to McIntosh apple in fields when the fruit reached 10 mm in size. Six single tree replicates were sprayed with the equivalent of 100 gallons per acre using a motorized backpack mist blower. All the trees in the study were matched to about the same size and initial cropload. The fruit was harvested at maturity and the average fruit weights for each treatment group were recorded. The results are shown in Table 1 (the lower the number of fruits, the greater the thinning effect of the treatment). The thinning study of Gala apple was repeated in Gala in Michigan following the same protocol described in Example 1. In addition to S-ABA and 3'methyl-(S)-ABA, 3'-propargyl-(S)-ABA was also tested for this effect.

[3] = tested on: Gala apple; experiment: Thinning study of Gala apple (Washington), chemical thinning followed by hand thinning, Example 4; settings: in combination with 6-benzyladenine 28 g/acre; 300 ppm derivative vs 1000 ppm S-ABA
Description: Another thinning study of Gala apple was carried out in Washington using a procedure of chemical thinning followed by hand thinning. For chemical thinning, trees (size matched across all the treatment groups) were sprayed with 6-benzyladenine combined with S-ABA or S-ABA derivatives at about the 10 mm fruit diameter timing, as described in Example 1. After a period known as “June drop,” the trees were further thinned by hand to achieve the essentially identical fruit load that was deemed to be the appropriate crop load. This practice will ensure a uni-size apple crop. With this protocol, a lower requirement for the number of fruits removed by hand indicates a more efficacious chemical thinning treatment.

[4] = tested on: McIntosh apple; experiment: Thinning study of McIntosh apple (Michigan), Example 1; settings: in combination with 6-benzyladenine 28 g/acre; 100 ppm derivative vs 1000 ppm S-ABA
Excerpt: In a study carried out in Michigan, 3'-methyl-(S)-abscisic acid was mixed with 6-benzyladenine and compared with a mixture of S-ABA and 6-benzyladenine. 3'-Methyl-(S)-abscisic acid was formulated as a potassium salt in an aqueous. S-ABA was formulated as potassium salt in an aqueous formulation. […]®, a 2% (w/w) 6-benzyladenine formulation, was used as the source of 6-benzyladenine (“6-BA” in the following tables). The treatments were applied to McIntosh apple in fields when the fruit reached 10 mm in size. Six single tree replicates were sprayed with the equivalent of 100 gallons per acre using a motorized backpack mist blower. All the trees in the study were matched to about the same size and initial cropload. The fruit was harvested at maturity and the average fruit weights for each treatment group were recorded. The results are shown in Table 1 (the lower the number of fruits, the greater the thinning effect of the treatment).

[5] = tested on: Gala apple; experiment: Thinning study of Gala apple (Michigan), Example 2; settings: in combination with 6-benzyladenine 28 g/acre
Excerpt: In a study carried out in Michigan, 3'-methyl-(S)-abscisic acid was mixed with 6-benzyladenine and compared with a mixture of S-ABA and 6-benzyladenine. 3'-Methyl-(S)-abscisic acid was formulated as a potassium salt in an aqueous. S-ABA was formulated as potassium salt in an aqueous formulation. […]®, a 2% (w/w) 6-benzyladenine formulation, was used as the source of 6-benzyladenine (“6-BA” in the following tables). The treatments were applied to McIntosh apple in fields when the fruit reached 10 mm in size. Six single tree replicates were sprayed with the equivalent of 100 gallons per acre using a motorized backpack mist blower. All the trees in the study were matched to about the same size and initial cropload. The fruit was harvested at maturity and the average fruit weights for each treatment group were recorded. The results are shown in Table 1 (the lower the number of fruits, the greater the thinning effect of the treatment). A further study was carried out in Michigan, following the same protocol as described in Example 1.

Structure (SMILES) | Effect on fruit size (percent fruit 125 count/box or larger), in words [1] | Effect on hand thinning required / fruit drop, in words [1] | Harvest percent fruit 125 ct/box or larger ([1]; 300 ppm) | Number hand thinned per tree ([1]; 300 ppm) | Harvest percent fruit 125 ct/box or larger ([1]; 1000 ppm) | Number hand thinned per tree ([1]; 1000 ppm) | Thinning effect, in words ([2]; in combination with 6-benzyladenine) | Thinning potency relative to S-ABA (in words) [3] | Thinning potency relative to S-ABA (in words) ([2]; in combination with 6-benzyladenine 28 g/acre, 100 ppm derivative vs 300 ppm S-ABA) | Harvest percent fruit 125 ct/box or larger ([1]; 30 ppm) | Number hand thinned per tree ([1]; 30 ppm) | Harvest percent fruit 125 ct/box or larger ([1]; 100 ppm) | Number hand thinned per tree ([1]; 100 ppm) | Thinning potency relative to S-ABA [4] | Thinning potency relative to S-ABA (in words) [5]
CC1=CC(=O)CC(C)(C)[C@@]1(O)/C=C/C(C)=C/C(=O)O [S-ABA, (S)-abscisic acid] | small increase in the fruit size in a dose dependent manner | did not reduce the hand thinning required | 27.6% | 61.2 per tree | 29.7% | 67.8 per tree |  |  |  |  |  |  |  |  | 
C#CCC1=C(C)[C@](O)(/C=C/C(C)=C\C(=O)O)C(C)(C)CC1=O [3′-propargyl-(S)-ABA, (2Z,4E)-5-((S)-1-hydroxy-2,6,6-trimethyl-4-oxo-3-(prop-2-yn-1-yl)cyclohex-2-en-1-yl)-3-methylpenta-2,4-dienoic acid] |  |  |  |  |  |  | caused significant thinning | about three times more potent than S-ABA |  |  |  |  |  |  | 
CC1=C(C)[C@](O)(/C=C/C(C)=C\C(=O)O)C(C)(C)CC1=O [3′-methyl-(S)-ABA, (2Z,4E)-5-((S)-1-hydroxy-2,3,6,6-tetramethyl-4-oxocyclohex-2-en-1-yl)-3-methylpenta-2,4-dienoic acid] | increases with higher use rate | caused fruit drop (thinning) | 37.6% | 45.4 per tree |  |  |  | about three times more potent than S-ABA | about three times more potent than S-ABA | 25.0% | 61.8 per tree | 30.2% | 59.2 per tree | about 10 times | more potent than S-ABA
